# Assay results: PubChem BioAssay (NCI)
#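 Compound exposure: 48 hours, 5 concentrations, 96-well plates. The concentration for 50% growth inhibition is given as GI50. TGI denotes the concentration required for complete inhibition of growth.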
# What was measured:
# Assay in all cases: NCI anticancer screen, dose series, 48 h
# SK-MEL-28 melanoma = system: SK-MEL-28 melanoma
# SK-OV-3 ovarian = system: SK-OV-3 ovarian
# CAKI-1 renal = system: CAKI-1 renal
# NCI/ADR-RES ovarian = system: NCI/ADR-RES ovarian
# EKVX NSCLC = system: EKVX NSCLC
# SW-620 colon = system: SW-620 colon
# IGROV1 ovarian = system: IGROV1 ovarian
# UACC-62 melanoma = system: UACC-62 melanoma
# U251 CNS = system: U251 CNS
# UACC-257 melanoma = system: UACC-257 melanoma
# MDA-MB-231 breast = system: MDA-MB-231 breast
# OVCAR-8 ovarian = system: OVCAR-8 ovarian
# SNB-19 CNS = system: SNB-19 CNS
# MDA-MB-435 = system: MDA-MB-435
# KM12 colon = system: KM12 colon
# SF-295 CNS = system: SF-295 CNS
# HCT-15 colon = system: HCT-15 colon
# NCI-H226 lung = system: NCI-H226 lung
# HL-60(TB) leukemia = system: HL-60(TB) leukemia
# OVCAR-3 ovarian = system: OVCAR-3 ovarian
# OVCAR-4 ovarian = system: OVCAR-4 ovarian
# HS 578T breast = system: HS 578T breast
# PC-3 prostate = system: PC-3 prostate
# SF-539 CNS = system: SF-539 CNS
# TK-10 renal = system: TK-10 renal
# MOLT-4 leukemia = system: MOLT-4 leukemia
# BT-549 breast = system: BT-549 breast
# NCI-H23 lung = system: NCI-H23 lung
# ACHN renal = system: ACHN renal
# SR leukemia = system: SR leukemia
# M14 melanoma = system: M14 melanoma
# NCI-H460 lung = system: NCI-H460 lung
# LOX IMVI melanoma = system: LOX IMVI melanoma
# HT29 colon = system: HT29 colon
# RXF 393 renal = system: RXF 393 renal
# UO-31 renal = system: UO-31 renal
# A498 renal = system: A498 renal
# CCRF-CEM leukemia = system: CCRF-CEM leukemia
# SK-MEL-5 melanoma = system: SK-MEL-5 melanoma
# DU-145 prostate = system: DU-145 prostate
# NCI-H522 lung = system: NCI-H522 lung
# MALME-3M melanoma = system: MALME-3M melanoma
# MCF7 breast = system: MCF7 breast
# T-47D breast = system: T-47D breast
# HCC-2998 colon = system: HCC-2998 colon
# HCT-116 colon = system: HCT-116 colon
# HOP-62 NSCLC = system: HOP-62 NSCLC
# SF-268 CNS = system: SF-268 CNS
# HOP-92 NSCLC = system: HOP-92 NSCLC
# SN12C renal = system: SN12C renal
# COLO 205 colon = system: COLO 205 colon
# OVCAR-5 ovarian = system: OVCAR-5 ovarian
# A549 NSCLC = system: A549 NSCLC
# SNB-75 CNS = system: SNB-75 CNS
# RPMI-8226 leukemia = system: RPMI-8226 leukemia
# SK-MEL-2 melanoma = system: SK-MEL-2 melanoma
# K-562 leukemia = system: K-562 leukemia
# 786-0 renal = system: 786-0 renal
smiles,measurement,setting,value
O=C(O)c1ccc(S(=O)(=O)Nc2ccc3oc4c(c3c2)C(=O)CCC4)cc1,GI50,SK-MEL-28 melanoma,> 100 µM
same,TGI,SK-MEL-28 melanoma,> 100 µM
same,GI50,SK-OV-3 ovarian,> 100 µM
same,TGI,SK-OV-3 ovarian,> 100 µM
same,GI50,CAKI-1 renal,> 100 µM
same,TGI,CAKI-1 renal,> 100 µM
same,GI50,NCI/ADR-RES ovarian,> 100 µM
same,TGI,NCI/ADR-RES ovarian,> 100 µM
same,GI50,EKVX NSCLC,> 100 µM
same,TGI,EKVX NSCLC,> 100 µM
same,GI50,SW-620 colon,> 100 µM
same,TGI,SW-620 colon,> 100 µM
same,GI50,IGROV1 ovarian,> 100 µM
same,TGI,IGROV1 ovarian,> 100 µM
same,GI50,UACC-62 melanoma,> 100 µM
same,TGI,UACC-62 melanoma,> 100 µM
same,GI50,U251 CNS,> 100 µM
same,TGI,U251 CNS,> 100 µM
same,GI50,UACC-257 melanoma,> 100 µM
same,TGI,UACC-257 melanoma,> 100 µM
same,GI50,MDA-MB-231 breast,> 100 µM
same,TGI,MDA-MB-231 breast,> 100 µM
same,GI50,OVCAR-8 ovarian,> 100 µM
same,TGI,OVCAR-8 ovarian,> 100 µM
same,GI50,SNB-19 CNS,> 100 µM
same,TGI,SNB-19 CNS,> 100 µM
same,GI50,MDA-MB-435,> 100 µM
same,TGI,MDA-MB-435,> 100 µM
same,GI50,KM12 colon,> 100 µM
same,TGI,KM12 colon,> 100 µM
same,GI50,SF-295 CNS,> 100 µM
same,TGI,SF-295 CNS,> 100 µM
same,GI50,HCT-15 colon,> 100 µM
same,TGI,HCT-15 colon,> 100 µM
same,GI50,NCI-H226 lung,> 100 µM
same,TGI,NCI-H226 lung,> 100 µM
same,GI50,HL-60(TB) leukemia,> 100 µM
same,TGI,HL-60(TB) leukemia,> 100 µM
same,GI50,OVCAR-3 ovarian,> 100 µM
same,TGI,OVCAR-3 ovarian,> 100 µM
same,GI50,OVCAR-4 ovarian,> 100 µM
same,TGI,OVCAR-4 ovarian,> 100 µM
same,GI50,HS 578T breast,> 100 µM
same,TGI,HS 578T breast,> 100 µM
same,GI50,PC-3 prostate,> 100 µM
same,TGI,PC-3 prostate,> 100 µM
same,GI50,SF-539 CNS,> 100 µM
same,TGI,SF-539 CNS,> 100 µM
same,GI50,TK-10 renal,> 100 µM
same,TGI,TK-10 renal,> 100 µM
same,GI50,MOLT-4 leukemia,> 100 µM
same,TGI,MOLT-4 leukemia,> 100 µM
same,GI50,BT-549 breast,> 100 µM
same,TGI,BT-549 breast,> 100 µM
same,GI50,NCI-H23 lung,> 100 µM
same,TGI,NCI-H23 lung,> 100 µM
same,GI50,ACHN renal,> 100 µM
same,TGI,ACHN renal,> 100 µM
same,GI50,SR leukemia,> 100 µM
same,TGI,SR leukemia,> 100 µM
same,GI50,M14 melanoma,> 100 µM
same,TGI,M14 melanoma,> 100 µM
same,GI50,NCI-H460 lung,> 100 µM
same,TGI,NCI-H460 lung,> 100 µM
same,GI50,LOX IMVI melanoma,> 100 µM
same,TGI,LOX IMVI melanoma,> 100 µM
same,GI50,HT29 colon,> 100 µM
same,TGI,HT29 colon,> 100 µM
same,GI50,RXF 393 renal,> 100 µM
same,TGI,RXF 393 renal,> 100 µM
same,GI50,UO-31 renal,> 100 µM
same,TGI,UO-31 renal,> 100 µM
same,GI50,A498 renal,> 100 µM
same,TGI,A498 renal,> 100 µM
same,GI50,CCRF-CEM leukemia,> 100 µM
same,TGI,CCRF-CEM leukemia,> 100 µM
same,GI50,SK-MEL-5 melanoma,> 100 µM
same,TGI,SK-MEL-5 melanoma,> 100 µM
same,GI50,DU-145 prostate,> 100 µM
same,TGI,DU-145 prostate,> 100 µM
same,GI50,NCI-H522 lung,> 100 µM
same,TGI,NCI-H522 lung,> 100 µM
same,GI50,MALME-3M melanoma,> 100 µM
same,TGI,MALME-3M melanoma,> 100 µM
same,GI50,MCF7 breast,> 100 µM
same,TGI,MCF7 breast,> 100 µM
same,GI50,T-47D breast,> 100 µM
same,TGI,T-47D breast,> 100 µM
same,GI50,HCC-2998 colon,> 100 µM
same,TGI,HCC-2998 colon,> 100 µM
same,GI50,HCT-116 colon,> 100 µM
same,TGI,HCT-116 colon,> 100 µM
same,GI50,HOP-62 NSCLC,> 100 µM
same,TGI,HOP-62 NSCLC,> 100 µM
same,GI50,SF-268 CNS,> 100 µM
same,TGI,SF-268 CNS,> 100 µM
same,GI50,HOP-92 NSCLC,> 100 µM
same,TGI,HOP-92 NSCLC,> 100 µM
same,GI50,SN12C renal,> 100 µM
same,TGI,SN12C renal,> 100 µM
same,GI50,COLO 205 colon,> 100 µM
same,TGI,COLO 205 colon,> 100 µM
same,GI50,OVCAR-5 ovarian,> 100 µM
same,TGI,OVCAR-5 ovarian,> 100 µM
same,GI50,A549 NSCLC,> 100 µM
same,TGI,A549 NSCLC,> 100 µM
same,GI50,SNB-75 CNS,> 100 µM
same,TGI,SNB-75 CNS,> 100 µM
same,GI50,RPMI-8226 leukemia,> 100 µM
same,TGI,RPMI-8226 leukemia,> 100 µM
same,GI50,SK-MEL-2 melanoma,> 100 µM
same,TGI,SK-MEL-2 melanoma,> 100 µM
same,GI50,K-562 leukemia,> 100 µM
same,TGI,K-562 leukemia,> 100 µM
same,GI50,786-0 renal,> 100 µM
same,TGI,786-0 renal,> 100 µM
